How the values were obtained:
Assay in all cases: relative viability (nuclei count vs DMSO), 5 days (fraction); higher = more cells survive
RU-SKI 43 + Bortezomib = compound: CC[C@@H](C)CNCC(=O)N1CCC2=C([C@@H]1COC3=CC=CC(=C3)C)C=CS2 [RU-SKI 43] + CC(C)C[C@H](NC(=O)[C@H](Cc1ccccc1)NC(=O)c1cnccn1)B(O)O [Bortezomib] (partner 0.002 µM)
Procedure, shortened: (§1)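 Each reported value is a median over duplicate plates. It expresses relative viability: treated-well nuclei count divided by vehicle-well nuclei count. Lung cancer cell lines in 1536-well plates were dosed by pin tool a day after seeding, alone with one drug or with a fixed anchor-drug dose plus five library-drug doses (not always all listed) in √10 steps, and nuclei were counted after 5 days.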

Irinotecan + Bortezomib = compound: CCc1c2c(nc3ccc(OC(=O)N4CCC(N5CCCCC5)CC4)cc13)-c1cc3c(c(=O)n1C2)COC(=O)[C@]3(O)CC [Irinotecan] + CC(C)C[C@H](NC(=O)[C@H](Cc1ccccc1)NC(=O)c1cnccn1)B(O)O [Bortezomib] (partner 0.002 µM)
Procedure, shortened: as §1

Irinotecan + Dasatinib = compound: CCc1c2c(nc3ccc(OC(=O)N4CCC(N5CCCCC5)CC4)cc13)-c1cc3c(c(=O)n1C2)COC(=O)[C@]3(O)CC [Irinotecan] + Cc1nc(Nc2ncc(C(=O)Nc3c(C)cccc3Cl)s2)cc(N2CCN(CCO)CC2)n1 [Dasatinib] (partner 0.075 µM)
Procedure, shortened: as §1

Irinotecan + Crizotinib = compound: CCc1c2c(nc3ccc(OC(=O)N4CCC(N5CCCCC5)CC4)cc13)-c1cc3c(c(=O)n1C2)COC(=O)[C@]3(O)CC [Irinotecan] + C[C@@H](Oc1cc(-c2cnn(C3CCNCC3)c2)cnc1N)c1c(Cl)ccc(F)c1Cl [Crizotinib] (partner 1 µM)
Procedure, shortened: as §1

Cell Line	relative viability (RU-SKI 43 + Bortezomib; first compound 0.1 µM)	relative viability (RU-SKI 43 + Bortezomib; first compound 0.3162 µM)	relative viability (RU-SKI 43 + Bortezomib; first compound 1 µM)	relative viability (RU-SKI 43 + Bortezomib; first compound 3.162 µM)	relative viability (RU-SKI 43 + Bortezomib; first compound 10 µM)	relative viability (Irinotecan + Bortezomib; first compound 0.6325 µM)	relative viability (Irinotecan + Bortezomib; first compound 2 µM)	relative viability (Irinotecan + Bortezomib; first compound 6.325 µM)	relative viability (Irinotecan + Bortezomib; first compound 20 µM)	relative viability (Irinotecan + Dasatinib; first compound 0.6325 µM)	relative viability (Irinotecan + Dasatinib; first compound 2 µM)	relative viability (Irinotecan + Dasatinib; first compound 6.325 µM)	relative viability (Irinotecan + Dasatinib; first compound 20 µM)	relative viability (Irinotecan + Crizotinib; first compound 0.6325 µM)	relative viability (Irinotecan + Crizotinib; first compound 2 µM)	relative viability (Irinotecan + Crizotinib; first compound 6.325 µM)	relative viability (Irinotecan + Crizotinib; first compound 20 µM)
HCC-78	0.505	0.495	0.484	0.471	0.427	0.404	0.393	0.242	0.257	0.394	0.384	0.214	0.24	0.353	0.312	0.222	0.181
NCI-H441	0.649	0.243	0.657	0.562	0.393	0.413	0.378	0.435	0.358	0.461	0.577	0.286	0.22	0.577	0.314	0.257	0.286
NCI-H1299	0.985	1.04	1.06	1.05	1.02	0.932	0.824	0.487	0.415					0.747	0.794	0.453	0.173
LU99A	1.08	1.3	1.15	1.23	1.03	0.42	0.326	0.18	0.249	0.303	0.322	0.248	0.177	0.281	0.286	0.251	0.229
NCI-H1651	0.93	1.1	1.01	0.931	0.947		0.849	0.553	0.227	0.319	0.311	0.281	0.112		0.693	0.479	0.135
HARA	1.22	1.19	1.13	1.18	1.14	0.955	0.291	0.177	0.156	0.109	0.188	0.114	0.121	0.705	0.204	0.208	0.161
RERF-LC-KJ	1.12	1.39	1.17	1.2	1.2		1.16	0.563	0.468	0.805	0.725	0.449	0.158	0.785	0.533	0.322	0.342
LCLC-103H	0.969	1.09	1.31	1.1	0.985	0.813	0.76	0.518	0.557	0.413	0.439	0.324	0.275	0.834	0.379	0.397	0.621
SK-LU-1	1.37	1.18	1.39	1.15	1.24	0.887	0.672	0.291	0.47	0.188	0.19	0.207	0.173	0.404	0.572	0.474	0.463
Calu-6	1.1	0.966	1.04	1.1	0.974	0.816	0.551	0.296	0.114					0.548	0.525	0.226	0.114
NCI-H522										0.639	0.868	0.485	0.532				
LOU-NH91	0.53	0.485	0.519	0.502	0.497	0.486	0.442	0.359	0.413	0.525	0.548	0.31	0.361	0.718	0.658	0.368	0.36
HCC-366	1.11	1.39	1.24	1.24	1.07	0.731	0.361	0.0441	0.0691	0.362	0.429	0.0758	0.0603	0.274	0.132	0.0524	0.0502
CAL-12T	0.967	1	1.3	0.961	0.964	0.944	0.978	0.491	0.324		0.513	0.29	0.095	0.728	0.766	0.374	0.326
PC-3 [JPC-3]	0.848	0.747	0.82	0.881	0.827	0.703	0.826	0.579	0.296	0.882	0.915	0.693	0.345	0.847	0.493	0.332	0.331
NCI-H2087	0.759	0.942	0.996	0.735	0.925	0.442	0.476	0.18	0.248	0.392	0.535	0.19	0.196	0.476	0.396	0.259	0.203
NCI-H1395										0.298	0.535	0.415	0.522				
ABC-1	0.286	0.351	0.35	0.285	0.312		0.276	0.324	0.103		0.675	0.444	0.203		0.785	0.297	0.154
NCI-H2023	0.88	1.21	1.04	1.15	0.932	0.435	0.686	0.162	0.0682	0.595	0.67	0.241	0.0645	0.676	0.532	0.205	0.0482
PC-14	0.793	1.19	0.942	0.848	0.66	0.831	0.802	0.178	0.158	0.273	0.244	0.127	0.088	0.873	0.695	0.2	0.194

From the supplement of paper PMC10307832
